Like-named read-outs stand apart in the source and are kept apart here.

The text below walks through data of US20180306790A1, “USE OF EB1 AS A BIOMARKER OF DRUG RESPONSE” (BASILEA PHARMACEUTICA INTERNATIONAL AG, priority 2015, published 2018).

Data set [1] concerns orthotopic GBM6 tumors. As to the kind of experiment: Orthotopic GBM6 xenografts, tumor volume by three-dimensional brain reconstruction. It is filed as in vivo, mouse. To be noted: 25 mg/kg i.v. days 30/33/36, day 45. How it is done: (§1) Approximately 100′000 cells of GBM6 GFP sh0 or shEB1 cells were stereotactically injected into the subventricular zone (0.5 mm anterior to bregma, −1 mm lateral, and −2.1 mm deep to the cortex surface) of 6-week-old athymic Nude mice. Grafted mice were intravenously treated with 25 mg/kg BAL101553 (three times at 30, 33 and 36 days after glioma implantation) or with vehicle (control). Forty five days after implantation, three animals of each group were sacrificed for analysis of tumor volumes (by three-dimensional brain reconstructions) or for FACS analysis.
For analysis of tumor volumes, mice were anesthetized and perfused with 4% paraformaldehyde. Brains were removed and fixed in 4% paraformaldehyde for 2 days at 4° C., then rinsed and conserved in PBS until dissection. Brains were entirely cut into 50-100-μm-thick sections using Vibratome (Leica) following the sagittal axis. A total of 60 sections per brain were obtained. Mapping and analysis of GFP-injected cells and tumors were performed by using a Leica DMLB fluorescence microscope, a Leica DC300F digital camera, and the Leica FW4000 imaging software (Leica). Three-dimensional brain reconstructions were obtained using FreeD software (Andrey P., Free-D: an integrated environment for three-dimensional reconstruction from serial sections. Journal of Neuroscience Methods. 2005; 145(1-2):233-244). […]

The subject of data set [2] is orthotopic GBM6 tumors. Briefly: FACS analysis of A2B5 brain tumor cancer stem cells from orthotopic GBM6 tumors. The format is in vivo, mouse. Particulars: 25 mg/kg i.v. days 30/33/36, day 45. How it is done:
as §1
After anesthesia, animals were perfused with PBS, and brains were removed and stored in HBSS buffer containing 2% FBS. Cells were dissociated in a cocktail of enzymes (DNase I (Roche, Rotkreuz, Switzerland), Collagenase D (Roche) and V (Sigma-Aldrich) with GentleMACS dissociator (Miltenyi Biotech)). The reaction was stopped by adding DMEM containing 10% FCS. The suspension was filtered and cells were resuspended in 40% Percoll (Sigma-Aldrich). After centrifugation, myelin was removed and cells were resuspended in HBSS buffer containing 2% FCS. Cells were incubated in HBSS containing 2% FCS with A2B5-APC and CD133-PE antibodies for 10 minutes. Cells were then fixed with 10% paraformaldehyde for 20 minutes and analyzed using flow cytometry. A total of 100′000 events were counted for each sample and data were recorded with the CellQuest Pro Software and analyzed using FlowJo software choosing the Dean-Jet-Fox model analysis.
(In flow cytometry, cells or beads pass a laser one at a time.)

Data set [3] deals with GBM6 CSCs. Briefly: Cytotoxic assay (sulforhodamine B growth inhibition, 72 hours). It is filed as cell-based, human. Particulars: at least three independent experiments, read-out: EC50 +/− SEM, cytotoxic activity. How it is done: (§2) Cells (5000 cells/well) were seeded in previously poly-DL-ornithine (Sigma-Aldrich) coated 96-well plates (10 μg/mL) and allowed to grow for 24 hours before treatment with BAL27862. Growth inhibition of cells was measured after 72 hours by using a sulforhodamine B assay kit (Sigma-Aldrich). Cell density was analyzed using a microplate reader (Labsystems Multiscan, Thermo, Villebon sur Yvette, France) and analysis of EC50 were performed with GraphPad 5.0 statistical software (GraphPad Software, La Jolla, USA). At least three independent experiments were performed.

Data set [4] relates to GBM9 CSCs. Described as above. It is filed as cell-based, human. To be noted: at least three independent experiments, read-out: EC50 +/− SEM, cytotoxic activity. As to the method:
as §2

For data set [5], the system named is GBM6 CSCs. As to the kind of experiment: Transwell cell migration assay. The format is cell-based, human. How it is done:
(§3) Stem cells (50′000) were poured on the upper side of a transwell migration chamber ([…] filter, BD) in DMEM. The lower side of the chamber was filled with DMEM, supplemented with 10% FCS. Cells were allowed to transmigrate for 5 hours and then chambers were removed. […] After washing and drying, pictures of six fields per condition were imaged at a magnification of 10× and transmigrated cells were counted.

The subject of data set [6] is GBM9 CSCs. Briefly: Transwell cell migration assay. The format is cell-based, human. To be noted: 5 hours transmigration. How it is done:
as §3

Data set [7] relates to GBM6 CSCs. As to the kind of experiment: Clonogenic survival assay. Particulars: 6 and 10 nM, 72 hours. The format is cell-based, human. As to the method:
Cells were grown in previously poly-DL-ornithine (Sigma-Aldrich) coated 6-well plates (1000 cells/well) and after treatment for 72 hours with BAL27862, incubated for up to 5 days. Colonies were stained with 1% Crystal-violet solution in 20% methanol (Sigma-Aldrich). The colonies with more than 50 cells were counted. At least three independent experiments were performed.

The test system of data set [8] is GBM6 CSCs. As to the kind of experiment: FACS analysis of A2B5 positive GBM6 brain tumor CSCs in vitro. It is filed as cell-based, human. To be noted: 6 nM, 72 hours. How it is done:
GBM6 cells were seeded at 300′000 cells/well into poly-DL-ornithine-coated 6-well plates (10 μg/mL)(Sigma-Aldrich), in stem cell-permissive medium (5 mg/mL Insulin, 0.1 mM Putrescine, […] Transferrin, 2.10^−8M Progesterone, 50 mg/mL Penicillin-Streptomycin and growth factors including 10 ng/mL basic fibroblast growth factor (bFGF), 20 ng/mL epidermal growth factor (EGF) and B27). One day later, cells were treated with BAL27862 for 72 hours. Then, cells were trypsinized, suspended in Hanks' Balanced Salt Solution (HBSS) buffer (Life technologies) containing blocking solution (Miltenyi Biotec) and incubated with A2B5-APC (clone 105HB29, reference 130-093-582) and CD133-PE (clone 293C3, reference 130-090-853) antibodies (Miltenyi Biotec) for 10 minutes. Cells were then fixed with 10% paraformaldehyde (Sigma-Aldrich) for 20 minutes and analyzed using flow cytometry (FACS Calibur™ BD Biosciences). A total of 100′000 events were counted for each sample and data were recorded with the CellQuest Pro Software (BD Biosciences) and analyzed using FlowJo software (Tree Star Inc., San Carlos, Calif.) and the Dean-Jet-Fox model analysis.

Data set [9] deals with GBM6 CSCs. Briefly: Self-renewal capacity determination (sphere formation). It is filed as cell-based, human. To be noted: 6 nM, 72 hours. As to the method:
GBM6 cells were seeded in previously poly-DL-ornithine (Sigma-Aldrich) coated 6-well plates (150′000 cells/well). After 24 hours, cells were treated or not with BAL27862 for 72 hours. At the end of treatment, the supernatant was removed and cells were harvested, dissociated into single cells and plated in 96-well plates (1-5 cells/well). Eight days later, the spheres were counted under an inverted light microscope (Leica DMI 4000B) (Leica, Saint Jorioz, France). Three independent experiments were performed.

Setting [10] is: GBM6 GFP sh0 (normal EB1 levels).
The mark [11] stands for this setting: GBM6 GFP shEB1 (EB1 downregulated).

Regarding `N#CCCNc1nonc1-c1nc2ccccc2n1CC(=O)c1ccc(NC(=O)[C@@H](N)CCCCN)cc1` [BAL101553], the “tumor mass (size) and tumor spreading versus vehicle” value with orthotopic GBM6 tumors [1] (GBM6 GFP sh0 (EB1-expressing) tumors) was “clear reduction of the tumor mass (size) and in tumor spreading”; in the data set on orthotopic GBM6 tumors [1] (GBM6 GFP shEB1 (EB1 negative) tumors) it was “minimal”. The “proportion of A2B5 positive GBM6 cells” value is roughly 80% in the data set with orthotopic GBM6 tumors [2] (EB1 downregulated GBM6 tumors) and 20% in the data set with orthotopic GBM6 tumors [2] (EB1 expressing GBM6 tumors). Moreover, in the data set on orthotopic GBM6 tumors [2] (EB1 expressing GBM6 tumors), the “proportion of A2B5 negative GBM6 cells” value worked out at 80%.
As to `N#CCCNc1nonc1-c1nc2ccccc2n1CC(=O)c1ccc(N)cc1` [BAL27862, 3-(4-{1-[2-(4-amino-phenyl)-2-oxo-ethyl]-1H-benzoimidazol-2-yl}-furazan-3-ylamino)-propionitrile], the EC50 in the data set with GBM6 CSCs [3] (Homo sapiens, GBM6, 72 h) was roughly 20 nM; in the data set with GBM6 CSCs [3], 20.8 nM; in the data set on GBM9 CSCs [4] (Homo sapiens, 72 h), roughly 20 nM; in the data set with GBM9 CSCs [4], 21.7 nM. In addition, the “inhibition of cell migration” value in the data set with GBM6 CSCs [5] (EB1 downregulated GBM6 cells (shEB1), 6 nM) is given as “inhibitory effect of BAL27862 treatment was drastically reduced”; with GBM6 CSCs [5] (GBM6, cytotoxic 20 nM, 5 hours transmigration) it was “drastically inhibited the migration”; in the data set on GBM6 CSCs [5] (GBM6, non-cytotoxic 6 nM, 5 hours transmigration) it was “statistically significant inhibition of cell migration”; with GBM6 CSCs [5] (control EB1-expressing GBM6 cells, 6 nM) it was “statistically significant inhibition of cell migration”; with GBM9 CSCs [6] (GBM9, cytotoxic 20 nM) it was “drastically inhibited the migration”; in the data set on GBM9 CSCs [6] (GBM9, non-cytotoxic 6 nM), “did not respond”. The “clonogenic capacity (colony formation)” value in the data set on GBM6 CSCs [7] (setting [10]) is “impaired the clonogenic capacity of GBM6 CSCs at the sub-toxic doses of 6 and 10 nM in a statistically significant manner”; with GBM6 CSCs [7] (GBM6 GFP shEB1 (EB1 levels downregulated)) it was “only in the EB1-expressing cells”. Further, the “A2B5 positive cell number” value in the data set on GBM6 CSCs [8] (GBM6 GFP sh0 (EB1 expressed)) was “significant inhibition”; in the data set with GBM6 CSCs [8] (setting [11]), “less sensitive”. Moreover, the sphere formation result is listed as “interferes statistically significantly with sphere formation” with GBM6 CSCs [9] (setting [10]), “suppresses the inhibitory activity of BAL27862” in the data set with GBM6 CSCs [9] (setting [11]) and “interferes statistically significantly with sphere formation” with GBM6 CSCs [9] (GBM6 wild-type).
